Paper PMC6934184, “Selective DNA-PKcs inhibition extends the therapeutic index of localized radiotherapy and chemotherapy” (The Journal of Clinical Investigation, 2019)

Biological target: T1, KIT D816H (Homo sapiens, UniProt P10721, D816H)
T1 construct: purchased Thermo Fisher Scientific (Life Technologies) SelectScreen
Assay: SelectScreen LanthaScreen
Format: binding
Settings: read-out: % displacement
How it was run: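 Percent values come from Thermo SelectScreen profiling of NU5455, combining activity and binding assays. CSF1R was run in Z'LYTE format at Km app ATP, and CAMK1 in Adapta format with ATP listed at 10.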

T1 sequence (P10721 26-976 D816H): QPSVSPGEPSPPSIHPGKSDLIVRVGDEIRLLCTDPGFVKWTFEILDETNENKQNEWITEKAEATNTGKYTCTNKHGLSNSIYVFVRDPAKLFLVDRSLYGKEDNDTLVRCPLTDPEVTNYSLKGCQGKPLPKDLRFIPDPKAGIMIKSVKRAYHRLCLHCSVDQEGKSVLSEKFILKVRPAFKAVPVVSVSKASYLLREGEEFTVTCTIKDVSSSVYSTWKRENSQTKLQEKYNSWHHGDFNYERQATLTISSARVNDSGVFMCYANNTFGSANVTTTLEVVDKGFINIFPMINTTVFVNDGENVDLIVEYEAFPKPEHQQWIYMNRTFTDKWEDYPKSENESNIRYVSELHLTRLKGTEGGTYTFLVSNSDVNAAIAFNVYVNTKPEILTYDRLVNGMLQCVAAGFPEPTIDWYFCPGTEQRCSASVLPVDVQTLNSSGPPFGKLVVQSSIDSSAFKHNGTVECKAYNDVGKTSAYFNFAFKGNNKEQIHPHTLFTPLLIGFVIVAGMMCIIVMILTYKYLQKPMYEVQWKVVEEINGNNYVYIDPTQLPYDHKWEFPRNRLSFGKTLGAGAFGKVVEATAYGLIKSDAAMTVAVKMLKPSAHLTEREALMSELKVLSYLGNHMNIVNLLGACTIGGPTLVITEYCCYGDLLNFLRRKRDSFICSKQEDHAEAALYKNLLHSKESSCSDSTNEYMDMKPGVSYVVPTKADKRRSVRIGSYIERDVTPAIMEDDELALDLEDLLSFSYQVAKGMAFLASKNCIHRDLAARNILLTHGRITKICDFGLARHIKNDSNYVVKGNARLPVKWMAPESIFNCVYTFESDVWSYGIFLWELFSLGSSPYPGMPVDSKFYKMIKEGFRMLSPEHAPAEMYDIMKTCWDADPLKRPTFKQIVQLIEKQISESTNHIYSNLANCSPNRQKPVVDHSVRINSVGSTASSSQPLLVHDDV

In the case of `CN(C(=O)CN1CCOCC1)c1ccc2sc3c(-c4cccc5c(=O)cc(N6CC7CCC(C6)O7)oc45)cccc3c2c1` [NU5455], the inhibition at 1 µM is reported as -0.2%.
